# Earlier results, collected in patent publication US20020193323A1, “Compositions and methods for promoting a healthy cardiovascular system and enhancing blood flow” (priority 2000, published 2002).
# Assays:
# [1] = in vivo
# [2] = test system: glutathione system; settings: selenium supplementation, through activation of the glutathione system
Structure (SMILES),reduce risk of major coronary events [1],reduced lipid peroxidation levels [2]
CC1=C(/C=C/C(C)=C/C=C/C(C)=C/C=C/C=C(C)/C=C/C=C(C)/C=C/C2=C(C)CCCC2(C)C)C(C)(C)CCC1 [Beta-carotene],51%,–
[Se] [selenium],–,50%
